The values below come from article PMC8901637, “Deprogramming metabolism in pancreatic cancer with a bi-functional GPR55 inhibitor and biased β2 adrenergic agonist” (Scientific Reports, 2022).

Molecules are shown by their SMILES.

Assay [1] deals with T1, GPR55 (Homo sapiens, UniProt Q9Y2T6).
T1 construct: 3 × HA-tagged human GPR55 stably expressed in HEK293 cells
In words: inhibition of uptake of the fluorescent GPR55 agonist T1117 in hGPR55-HEK293 cells; positive control. Type of assay: cell-based.

Assay [2] addresses T1, GPR55. Put plainly: inhibition of uptake of the fluorescent GPR55 agonist T1117 in hGPR55-HEK293 cells (live-cell imaging). Type of assay: cell-based.

T1 sequence (Q9Y2T6 whole entry): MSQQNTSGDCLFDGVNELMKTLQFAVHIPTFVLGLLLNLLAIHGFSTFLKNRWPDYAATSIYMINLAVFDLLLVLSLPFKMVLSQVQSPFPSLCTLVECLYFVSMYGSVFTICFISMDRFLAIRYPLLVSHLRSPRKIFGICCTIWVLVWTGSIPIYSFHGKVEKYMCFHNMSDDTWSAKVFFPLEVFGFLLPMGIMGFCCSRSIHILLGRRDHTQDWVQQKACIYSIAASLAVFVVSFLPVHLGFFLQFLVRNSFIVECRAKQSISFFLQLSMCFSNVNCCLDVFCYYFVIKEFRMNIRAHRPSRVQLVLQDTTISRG

For `COc1ccc(C[C@@H](C)NC[C@H](O)c2cc(O)cc(O)c2)c2ccccc12` [(R,R′)-MNF], the “% reduction in T1117 incorporation” value on GPR55 [1] is ~ 70 % reduction in T1117 incorporation.
As a reminder, the IC50 is the concentration needed to halve the response being measured. On GPR55 [2], `COc1ccc(C[C@H](C)NC[C@H](O)c2cc(O)cc(O)c2)c2ccccc12` [(R,S′)-MNF, (R,S′)-4′-methoxy-1-naphthylfenoterol] yielded an IC50 of 1300 nM.
